Assay results from patent publication US7607596B1, “Process for enhancing the solubility of poorly soluble drugs” (Exxpharma, LLC, priority 2007, dated 2009).

Experiment: dissolution rate of ketoprofen in 0.1 N HCl
Type: physicochemical
Conditions: granulated with microcrystalline cellulose

dissolution rate of ketoprofen in 0.1N HCl (change after processing) (Example 1: ketoprofen ground/mixed with distilled water in TSGM, 200 rpm, 25° C., dried at 40° C.): increased two-fold
dissolution rate of ketoprofen in 0.1N HCl (change after processing) (Example 2: ketoprofen ground/mixed with 10% aqueous solution of Labrasol in TSGM): increased two-fold
dissolution rate of ketoprofen in 0.1N HCl (change after processing) (Example 3: ketoprofen ground/mixed with 10% aqueous solution of Tween 80 in TSGM): increased four-fold
dissolution rate of ketoprofen in 0.1N HCl (change after processing) (Example 4: ketoprofen ground/mixed with 10% aqueous solution of Capryol 90 in TSGM): increased two-fold
dissolution rate of ketoprofen in 0.1N HCl (change after processing) (Example 5: ketoprofen ground/mixed with 10% aqueous solution of polyvinylpyrrolidone in TSGM): increased three-fold
SMILES: CC(C(=O)O)c1cccc(C(=O)c2ccccc2)c1 (centres unmarked) [ketoprofen, Ketoprofen]
